Assays:
Type in all cases: cell-based
PKCβ = molecular target: T1, PKCβ (Homo sapiens, UniProt P05771); test: EGFP-PKC translocation in HeLa cells (PKCβ); conditions: one hour
T1 construct: host or cells: HeLa cells
Procedure: (§1) Five EGFP-PKC isoforms (Clontech) were available for this experiment, enabling the screening of the three predominant PKC families (i.e. classical, novel and atypical PKCs). The members of the various PKC families are α, β, and γ (classical), θ (novel) and ζ (atypical).
(§2) HeLa cells were plated out in a 24-well plate containing coverslips and transfected with PKC isoforms fused to EGFP, using a commercially available effectine-transfection kit (QIAGEN, Pty. Ltd.). Cells were exposed to the transfection reagents for 16-24 hr. Subsequently, transfected cells were treated for one hour with TPA (100 ng/mL), bryostatin-1 (5 pg/mL), PEP003 (2.25 μg/mL; 5 μM) or PEP005 ([…]) 1.5 μM). Following treatment, cells were fixed on coverslips and mounted on glass slides. The slides were subsequently examined visually by fluorescence microscopy, photographed, and over 150 cells were counted/treatment/PKC isoform. Counted cells were classified according to the localisation of the PKC-EGFP fluorescence as either cytoplasmic or plasma membrane using ImagePro™ 4.1 (FIG. 5). […] The number of these cells was also counted. Results are presented as an average and standard deviation of percentages of cells (Table 1).

PKCθ = molecular target: T2, PKCθ (Homo sapiens, UniProt Q04759); test: EGFP-PKC translocation in HeLa cells (PKCθ); conditions: one hour, same concentrations
T2 construct: host or cells: HeLa cells
T2 sequence (Q04759 whole entry): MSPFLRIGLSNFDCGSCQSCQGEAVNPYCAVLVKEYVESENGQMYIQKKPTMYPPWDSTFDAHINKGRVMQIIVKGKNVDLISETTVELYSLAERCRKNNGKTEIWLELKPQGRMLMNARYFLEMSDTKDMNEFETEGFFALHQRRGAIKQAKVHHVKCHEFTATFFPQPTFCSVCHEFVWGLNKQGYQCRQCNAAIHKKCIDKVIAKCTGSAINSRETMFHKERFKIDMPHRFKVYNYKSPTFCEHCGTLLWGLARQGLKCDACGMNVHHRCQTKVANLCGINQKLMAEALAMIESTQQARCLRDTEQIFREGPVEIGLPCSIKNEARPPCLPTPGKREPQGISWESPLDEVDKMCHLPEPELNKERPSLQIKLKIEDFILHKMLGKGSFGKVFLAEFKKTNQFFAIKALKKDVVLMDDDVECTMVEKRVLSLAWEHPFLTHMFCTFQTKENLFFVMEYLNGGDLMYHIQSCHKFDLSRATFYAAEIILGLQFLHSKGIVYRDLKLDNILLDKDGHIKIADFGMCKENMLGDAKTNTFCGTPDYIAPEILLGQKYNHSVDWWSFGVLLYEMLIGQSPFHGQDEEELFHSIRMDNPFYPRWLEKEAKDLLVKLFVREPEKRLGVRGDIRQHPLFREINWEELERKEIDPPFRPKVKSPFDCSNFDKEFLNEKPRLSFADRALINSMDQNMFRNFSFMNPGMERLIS
Procedure: as §1, §2

PKCζ = molecular target: T3, PKCζ (Homo sapiens, UniProt Q05513); test: EGFP-PKC translocation in HeLa cells (PKCζ); conditions: one hour, same concentrations
T3 construct: host or cells: HeLa cells
T3 sequence (Q05513 1-592): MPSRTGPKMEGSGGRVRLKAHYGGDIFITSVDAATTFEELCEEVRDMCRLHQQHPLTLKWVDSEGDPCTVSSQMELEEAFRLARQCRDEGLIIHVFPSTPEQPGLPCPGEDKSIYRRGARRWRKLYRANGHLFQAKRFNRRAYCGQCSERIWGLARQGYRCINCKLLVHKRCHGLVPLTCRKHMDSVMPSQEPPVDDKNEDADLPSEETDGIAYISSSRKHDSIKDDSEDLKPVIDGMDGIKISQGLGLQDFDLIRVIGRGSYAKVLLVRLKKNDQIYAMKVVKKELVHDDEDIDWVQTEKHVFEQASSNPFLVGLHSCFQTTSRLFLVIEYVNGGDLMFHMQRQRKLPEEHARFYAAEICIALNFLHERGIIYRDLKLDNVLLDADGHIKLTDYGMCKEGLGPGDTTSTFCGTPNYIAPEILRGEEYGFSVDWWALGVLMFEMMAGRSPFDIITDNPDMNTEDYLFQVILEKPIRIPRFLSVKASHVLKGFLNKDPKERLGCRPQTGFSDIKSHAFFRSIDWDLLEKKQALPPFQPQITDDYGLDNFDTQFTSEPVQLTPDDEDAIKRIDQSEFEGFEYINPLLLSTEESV
Procedure: as §1, §2

[1] = tested on: peripheral blood mononuclear cells; test: Phagocytosis with fluorescent beads; conditions: 30 min, whole heparinized blood
Procedure: Phagocytosis by peripheral blood mononuclear cells (PBMCs) was assayed (Steinkamp et al., 1982) using 1 μm Fluoresbrite™ yellow-green fluorescent latex spheres (Polysciences, Inc., Warrington, Pa.). A sample of whole, heparinized blood was treated with drug and 5×10E7 fluorescent latex beads in 10 μL of PBS added per mL of suspension. Cells were incubated and maintained in suspension for 30 min by means of a shaker platform at 37° C. The stimulated and non-stimulated samples were then lysed to isolate PBMCs. The PBMCs were run on the flow cytometer measuring FITC (excitation at 488 nm, emission at 525±20 nm), gated for fluorescence (phagocytosed spheres) and light scatter (cell size).

T1 sequence (P05771 whole entry, species assumed): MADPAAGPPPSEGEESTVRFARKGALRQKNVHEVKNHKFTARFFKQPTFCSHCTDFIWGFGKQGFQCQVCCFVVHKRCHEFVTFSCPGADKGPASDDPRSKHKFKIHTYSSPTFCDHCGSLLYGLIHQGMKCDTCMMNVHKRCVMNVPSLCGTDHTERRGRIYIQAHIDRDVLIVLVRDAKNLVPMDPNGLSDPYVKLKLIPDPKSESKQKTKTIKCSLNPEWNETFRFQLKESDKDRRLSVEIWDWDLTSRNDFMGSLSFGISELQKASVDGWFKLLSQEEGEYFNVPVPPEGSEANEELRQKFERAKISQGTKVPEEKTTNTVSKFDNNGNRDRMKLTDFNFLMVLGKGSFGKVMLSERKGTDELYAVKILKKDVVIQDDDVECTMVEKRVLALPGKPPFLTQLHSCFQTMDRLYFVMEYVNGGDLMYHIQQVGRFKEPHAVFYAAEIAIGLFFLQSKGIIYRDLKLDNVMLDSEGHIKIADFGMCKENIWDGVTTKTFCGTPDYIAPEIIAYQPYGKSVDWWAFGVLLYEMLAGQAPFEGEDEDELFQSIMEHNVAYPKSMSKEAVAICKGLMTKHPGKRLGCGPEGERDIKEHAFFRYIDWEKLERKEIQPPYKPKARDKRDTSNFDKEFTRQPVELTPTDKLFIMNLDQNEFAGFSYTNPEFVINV

CCCCCCCCCCCCCC(=O)O[C@@H]1[C@@H](C)[C@@]2(O)[C@@H](C=C(CO)C[C@]3(O)C(=O)C(C)=C[C@@H]23)C2C(C)(C)[C@@]21OC(C)=O (single isomer, unassigned) [TPA]
number of PKCβ transfected cells with Golgi-like fluorescence (PKCβ): increase in Golgi-like fluorescence
translocation of PKCβ from cytoplasm to plasma membrane (PKCβ; TPA 100 ng/mL, bryostatin-1 5 pg/mL, PEP003 2.25 μg/mL (5 μM), PEP005 670 μg/mL (1.5 μM)): translocated from the cytoplasm to the plasma membrane
translocation of PKCθ (PKCθ): translocated
translocation of PKCζ (PKCζ): fail to induce translocation
phagocytosis of fluorescent latex spheres in PBMCs [1]: stimulate phagocytosis
